# Data published in patent US20230278972A1, “SUBSTITUTED HALOALKYL SULFONANILIDE HERBICIDES” (FMC Corporation, priority 2020, published 2023).
# Assays:
# Assay type in all cases: in vivo
# [1] = tested on: barnyardgrass (Echinochloa crus-galli); test: Test A preemergence, barnyardgrass; conditions: Preemergence; for Barnyardgrass plant response rating: 125 g ai/ha, visual injury on 0 to 100 scale (0 no effect, 100 complete control), approximately 10 days; for Plant response rating, Barnyardgrass: 0 to 100 scale (0 no effect, 100 complete control)
# Method in brief: (§1)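 Preemergence: seeded pots of loam plus sand received a directed soil spray. Postemergence: seedlings at one to two leaves, 2 to 10 cm high, were oversprayed. Each compound was formulated in a non-phytotoxic solvent mix that included a surfactant.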
# kochia (Bassia scoparia) [2] = test: Test A preemergence, kochia; conditions: Preemergence; for Kochia plant response rating: 125 g ai/ha, visual injury on 0 to 100 scale (0 no effect, 100 complete control), approximately 10 days; for Plant response rating, Kochia: 0 to 100 scale (0 no effect, 100 complete control)
# Method in brief: as §1
# [3] = tested on: ragweed (common ragweed, Ambrosia artemisiifolia); test: Test A preemergence, ragweed; conditions: Preemergence; for Ragweed plant response rating: 125 g ai/ha, visual injury on 0 to 100 scale (0 no effect, 100 complete control), approximately 10 days; for Plant response rating, Ragweed: 0 to 100 scale (0 no effect, 100 complete control)
# Method in brief: as §1
# [4] = tested on: Ryegrass, Italian (Italian ryegrass, Lolium multiflorum); test: Test A preemergence, Ryegrass, Italian; conditions: Preemergence; for Ryegrass, Italian plant response rating: 125 g ai/ha, visual injury on 0 to 100 scale (0 no effect, 100 complete control), approximately 10 days; for Plant response rating, Ryegrass, Italian: 0 to 100 scale (0 no effect, 100 complete control)
# Method in brief: as §1
# [5] = tested on: Foxtail, Giant (giant foxtail, Setaria faberi); test: Test A preemergence, Foxtail, Giant; conditions: Preemergence; for Foxtail, Giant plant response rating: 125 g ai/ha, visual injury on 0 to 100 scale (0 no effect, 100 complete control), approximately 10 days; for Plant response rating, Foxtail, Giant: 0 to 100 scale (0 no effect, 100 complete control)
# Method in brief: as §1
# [6] = tested on: pigweed (Amaranthus retroflexus); test: Test A preemergence, pigweed; conditions: for Pigweed plant response rating: 125 g ai/ha, visual injury on 0 to 100 scale (0 no effect, 100 complete control), approximately 10 days; for Plant response rating, Pigweed: 0 to 100 scale (0 no effect, 100 complete control)
# Method in brief: (§2)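 Seeds are sown in loam mixed with sand and sprayed on the soil surface right after planting for the preemergence test. Postemergence pots are sprayed once seedlings reach 2 to 10 cm at the one- to two-leaf stage. The same surfactant-containing, non-phytotoxic solvent formulation serves both.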
# [7] = tested on: barnyardgrass (Echinochloa crus-galli); test: Test A postemergence, barnyardgrass; conditions: Postemergence; for Barnyardgrass plant response rating: 500 g ai/ha, visual injury vs untreated controls after approx. 10 days
# Method in brief: as §2
# kochia (Bassia scoparia) [8] = test: Test A postemergence, kochia; conditions: Postemergence; for Kochia plant response rating: 500 g ai/ha, visual injury vs untreated controls after approx. 10 days
# Method in brief: as §1
# [9] = tested on: ragweed (common ragweed, Ambrosia artemisiifolia); test: Test A postemergence, ragweed; conditions: Postemergence; for Ragweed plant response rating: 500 g ai/ha, visual injury vs untreated controls after approx. 10 days
# Method in brief: as §1
# [10] = tested on: Ryegrass, Italian (Italian ryegrass, Lolium multiflorum); test: Test A postemergence, Ryegrass, Italian; conditions: Postemergence; for Ryegrass, Italian plant response rating: 500 g ai/ha, visual injury vs untreated controls after approx. 10 days
# Method in brief: as §1
# [11] = tested on: Foxtail, Giant (giant foxtail, Setaria faberi); test: Test A postemergence, Foxtail, Giant; conditions: Postemergence; for Foxtail, Giant plant response rating: 500 g ai/ha, visual injury vs untreated controls after approx. 10 days
# Method in brief: as §1
# [12] = tested on: pigweed (Amaranthus retroflexus); test: Test A postemergence, pigweed; conditions: Postemergence; for Pigweed plant response rating: 500 g ai/ha, visual injury vs untreated controls after approx. 10 days
# Method in brief: as §1
# [13] = tested on: wheat (Triticum aestivum); test: Test A postemergence, wheat; conditions: Postemergence; for Wheat plant response rating: 500 g ai/ha, visual injury vs untreated controls after approx. 10 days
# Method in brief: as §2
# corn (Zea mays) = test: Test A postemergence, corn; conditions: Postemergence; for Corn plant response rating: 500 g ai/ha, visual injury vs untreated controls after approx. 10 days
# Method in brief: as §1
# [14] = tested on: blackgrass (Alopecurus myosuroides); test: Test A postemergence, blackgrass; conditions: Postemergence; for Blackgrass plant response rating: 500 g ai/ha, visual injury vs untreated controls after approx. 10 days
# Method in brief: as §1
# [15] = tested on: galium (catchweed bedstraw, Galium aparine); test: Test A postemergence, galium; conditions: Postemergence; for Galium plant response rating: 500 g ai/ha, visual injury vs untreated controls after approx. 10 days
# Method in brief: as §2
# [16] = 125 g ai/ha, visual injury approx. 10 days, 0 to 100 scale (0 no effect, 100 complete control)
# [17] = 0 to 100 scale (0 no effect, 100 complete control)
# [18] = 31 g ai/ha, visual injury, approx. 10 days
# [19] = 31 g ai/ha, visual injury on 0 to 100 scale (0 no effect, 100 complete control), approx. 10 days
# [20] = 125 g ai/ha, 0 to 100 scale (0 no effect, 100 complete control)
# [21] = 1000 g ai/ha, visual injury, 0 to 100 scale (0 no effect, 100 complete control), approx. 10 days
smiles,measurement,setting,value
Cc1ccc(=O)n(-c2cc(NS(=O)(=O)C(F)(F)F)c(C)cc2C)n1 [Compound 85],Barnyardgrass plant response rating,[1],70
same,"Plant response rating, Barnyardgrass",[1]; 500 g ai/ha,70
same,Kochia plant response rating,kochia (Bassia scoparia) [2],60
same,"Plant response rating, Kochia",kochia (Bassia scoparia) [2]; 500 g ai/ha,70
same,Ragweed plant response rating,[3],0
same,"Plant response rating, Ragweed",[3]; 500 g ai/ha,0
same,"Ryegrass, Italian plant response rating",[4],0
same,"Plant response rating, Ryegrass, Italian",[4]; 500 g ai/ha,30
same,"Foxtail, Giant plant response rating",[5],10
same,"Plant response rating, Foxtail, Giant",[5]; 500 g ai/ha,90
same,Pigweed plant response rating,[6],100
same,"Plant response rating, Pigweed",[6]; 500 g ai/ha,100
same,"Plant response rating, Barnyardgrass",[7]; [16],30
same,Barnyardgrass plant response rating,[7]; [17],20
same,"Plant response rating, Kochia",kochia (Bassia scoparia) [8]; [16],0
same,Kochia plant response rating,kochia (Bassia scoparia) [8]; [17],0
same,"Plant response rating, Ragweed",[9]; [16],20
same,Ragweed plant response rating,[9]; [17],30
same,"Plant response rating, Ryegrass, Italian",[10]; [16],40
same,"Ryegrass, Italian plant response rating",[10]; [17],30
same,"Plant response rating, Foxtail, Giant",[11]; [16],0
same,"Foxtail, Giant plant response rating",[11]; [17],0
same,"Plant response rating, Pigweed",[12]; [16],20
same,Pigweed plant response rating,[12]; [17],40
same,"Plant response rating, Wheat",[13]; [16],0
same,Wheat plant response rating,[13]; [17],0
same,"Plant response rating, Corn",corn (Zea mays); [16],0
same,Corn plant response rating,corn (Zea mays); [17],0
same,"Plant response rating, Blackgrass",[14]; [16],0
same,Blackgrass plant response rating,[14]; [17],0
same,"Plant response rating, Galium",[15]; [16],60
same,Galium plant response rating,[15]; [17],0
Cc1cc(C)c(C(=O)N2CCCC(F)C2)cc1NS(=O)(=O)C(F)(F)F (stereo not shown) [Compound 155],"Plant response rating, Barnyardgrass",[1]; [18],50
same,Barnyardgrass plant response rating,[1],90
same,"Plant response rating, Kochia",kochia (Bassia scoparia) [2]; [18],30
same,Kochia plant response rating,kochia (Bassia scoparia) [2],40
same,"Plant response rating, Ragweed",[3]; [18],90
same,Ragweed plant response rating,[3],80
same,"Plant response rating, Ryegrass, Italian",[4]; [18],80
same,"Ryegrass, Italian plant response rating",[4],80
same,"Plant response rating, Foxtail, Giant",[5]; [18],50
same,"Foxtail, Giant plant response rating",[5],80
same,"Plant response rating, Pigweed",[6]; [18],90
same,Pigweed plant response rating,[6],100
same,"Plant response rating, Barnyardgrass",[7]; [19],90
same,"Plant response rating, Barnyardgrass",[7]; [20],90
same,"Plant response rating, Kochia",kochia (Bassia scoparia) [8]; [19],20
same,"Plant response rating, Kochia",kochia (Bassia scoparia) [8]; [20],60
same,"Plant response rating, Ragweed",[9]; [19],60
same,"Plant response rating, Ragweed",[9]; [20],80
same,"Plant response rating, Ryegrass, Italian",[10]; [19],40
same,"Plant response rating, Ryegrass, Italian",[10]; [20],90
same,"Plant response rating, Foxtail, Giant",[11]; [19],20
same,"Plant response rating, Foxtail, Giant",[11]; [20],30
same,"Plant response rating, Pigweed",[12]; [19],80
same,"Plant response rating, Pigweed",[12]; [20],90
same,"Plant response rating, Wheat",[13]; [19],30
same,"Plant response rating, Wheat",[13]; [20],60
same,"Plant response rating, Corn",corn (Zea mays); [19],50
same,"Plant response rating, Corn",corn (Zea mays); [20],90
same,"Plant response rating, Blackgrass",[14]; [19],10
same,"Plant response rating, Blackgrass",[14]; [20],30
same,"Plant response rating, Galium",[15]; [19],80
same,"Plant response rating, Galium",[15]; [20],90
Cc1cc(C)c(C(=O)N2CCC(Cl)CC2)cc1NS(=O)(=O)C(F)(F)F [Compound 242],"Plant response rating, Barnyardgrass",[1]; 1000 g ai/ha,100
same,"Plant response rating, Kochia",kochia (Bassia scoparia) [2]; 1000 g ai/ha,90
same,"Plant response rating, Ragweed",[3]; 1000 g ai/ha,90
same,"Plant response rating, Ryegrass, Italian",[4]; 1000 g ai/ha,100
same,"Plant response rating, Foxtail, Giant",[5]; 1000 g ai/ha,100
same,"Plant response rating, Pigweed",[6]; 1000 g ai/ha,100
same,"Plant response rating, Barnyardgrass",[7]; [21],90
same,"Plant response rating, Kochia",kochia (Bassia scoparia) [8]; [21],80
same,"Plant response rating, Ragweed",[9]; [21],90
same,"Plant response rating, Ryegrass, Italian",[10]; [21],0
same,"Plant response rating, Foxtail, Giant",[11]; [21],90
same,"Plant response rating, Pigweed",[12]; [21],90
same,"Plant response rating, Wheat",[13]; [21],60
same,"Plant response rating, Corn",corn (Zea mays); [21],70
same,"Plant response rating, Blackgrass",[14]; [21],40
same,"Plant response rating, Galium",[15]; [21],90
Cc1cc(C)c(N(S(C)(=O)=O)S(=O)(=O)C(F)(F)F)cc1-c1cc(Cl)nn(C)c1=O [Compound 46],Barnyardgrass plant response rating,[1],0
same,"Plant response rating, Barnyardgrass",[1]; 500 g ai/ha,70
same,Kochia plant response rating,kochia (Bassia scoparia) [2],0
same,"Plant response rating, Kochia",kochia (Bassia scoparia) [2]; 500 g ai/ha,0
same,Ragweed plant response rating,[3],0
same,"Plant response rating, Ragweed",[3]; 500 g ai/ha,0
same,"Ryegrass, Italian plant response rating",[4],50
same,"Plant response rating, Ryegrass, Italian",[4]; 500 g ai/ha,80
same,"Foxtail, Giant plant response rating",[5],90
same,"Plant response rating, Foxtail, Giant",[5]; 500 g ai/ha,90
same,Pigweed plant response rating,[6],0
same,"Plant response rating, Pigweed",[6]; 500 g ai/ha,50
same,"Plant response rating, Barnyardgrass",[7]; [16],0
same,Barnyardgrass plant response rating,[7]; [17],0
same,"Plant response rating, Kochia",kochia (Bassia scoparia) [8]; [16],0
same,Kochia plant response rating,kochia (Bassia scoparia) [8]; [17],0
same,"Plant response rating, Ragweed",[9]; [16],0
same,Ragweed plant response rating,[9]; [17],0
same,"Plant response rating, Ryegrass, Italian",[10]; [16],0
same,"Ryegrass, Italian plant response rating",[10]; [17],0
same,"Plant response rating, Foxtail, Giant",[11]; [16],0
same,"Foxtail, Giant plant response rating",[11]; [17],0
same,"Plant response rating, Pigweed",[12]; [16],0
same,Pigweed plant response rating,[12]; [17],0
same,"Plant response rating, Wheat",[13]; [16],0
same,Wheat plant response rating,[13]; [17],50
same,"Plant response rating, Corn",corn (Zea mays); [16],0
same,Corn plant response rating,corn (Zea mays); [17],0
same,"Plant response rating, Blackgrass",[14]; [16],0
same,Blackgrass plant response rating,[14]; [17],0
same,"Plant response rating, Galium",[15]; [16],0
same,Galium plant response rating,[15]; [17],0
